{"source": "patent US7745465B2", "about": "“Method of enhancing cellular production of molecular chaperone, hydroxylamine derivatives useful for enhancing the chaperone production and the preparation thereof” (CytRx Corporation, priority 1995, dated 2010)", "format_in_all_cases": "cell-based", "key": {"[1]": {"system": "H9c2 rat heart muscle cell", "experiment": "Serum deprivation, cell viability by MTT test (H9c2)", "conditions": "serum deprived H9c2, 10^−5 M, control 100%, serum deprived alone 50.5%, read-out: relative cell viability", "experimental": "(§1) Experiments were carried out using WEH1 mouse fibrosarcoma and H9c2 rat heart muscle cell lines divided into three groups: • control (10% FCS fetal calf serum) • serum deprived • N-[2-hydroxy-3-(1-piperidinyl)propoxy]-3-pyridinecarboximidoyl chloride maleate (10^−5 M) treated and serum deprived 1.2(i) Serum Deprivation and MTT Test\nWe have screened various cell lines, drug concentrations, pretreatment and deprivation times and we have found the most appropriate conditions as follows: […] H9c2 rat heart muscle cell (n=6) and WEHI mouse fibrosarcoma cell (n=7) have been plated on 24 well plates in 10% FCS DMEM (Dulbecco modified Eagle's medium) and incubated for 2 hours at 37 C, 5% CO2. Medium has been discarded and replaced by 10% FCS DMEM containing 10^−5 M N-[2-hydroxy-3-(1-piperidinyl)propoxy ]-3-pyridinecarboximidoyl chloride maleate. […] Cell viability was measured by MTT test based on the method of Plumb et al. (Cancer Res. 49: 4435-4444 (1989)) The tetrazolium salt method involving conversion of MTT (3-(4,5-dimethylthiazol-2yl)-2,5-diphenyltetrazolium bromide) to colored formazan by alive cells, served as an indirect measurement of cell viability. […] O.D. of the plates was read at 570 nm on an ELISA plate reader (Labsystems Multiskan Biochromatic type:348). […] Relative cell viability was calculated defining control group as 100%."}, "[2]": {"system": "plasma membrane fluidity", "experiment": "Steady-state fluorescence anisotropy of DPH-PA in serum deprived cells", "conditions": "both cell models", "experimental": "as §1\nCell suspensions of […] in PBS were labeled by the addition of DPH-PA (3-[p-(6-Phenyl)-1,3,5-hexatrienyl]phenylpropionic acid) dissolved in tetrahydrofuran at a final concentration of 0.1 :M and incubated for 10 min. at 37 C. The amount of organic solvent added was 0.05% to avoid its effect on cell membranes. […] Fluorescence measurements were carried out at 37° C. using a Quanta Master QM-1 T-format luminescence spectrometer (Photon Technology Int. Inc., N.J. USA) equipped with polarizers in the excitation and in the two emission light path. […] The measured fluorescence intensities were corrected for background fluorescence and light scattering from the unlabeled sample. The fluorescence anisotropy was calculated as rs=(IVV−G·IVH)/(IVV+(2×G×IVH))\nwhere IVV and IVH are observed intensities measured with polarizers parallel and perpendicular to the vertically polarized exciting beam, respectively. […]"}, "[3]": {"system": "Hsp72", "experiment": "Heat stress induced hsp72 expression in rat testicular explant", "conditions": "10^−5 M, 15 min. before 43° C. 30 min.", "experimental": "Testis of CFY rats weighing of 200 g were removed in sterile conditions and the released testicular tubuli were suspended in 10% fetal bovine serum containing MEM culture medium in that way that five ml suspension contained 50-100 mg tissue. The explants were incubated in 5% CO2 containing humidified air at 37° C. for one hour, then the cultures were treated with 10^−5 M concentration of the tested compounds. After a further incubation for 15 min. at 37° C., explants were exposed to heat shock at 43° C. for 30 min. The amount of the induced hsp72 was measured after a further 6 hours incubation at 37° C."}}}
{"compound": "O=C(O)/C=C\\C(=O)O.OC(CON=C(Cl)c1cccnc1)CN1CCCCC1", "note": "(stereo not drawn) [N-[2-hydroxy-3-(1-piperidinyl)-propoxy]3-pyridinecarboximidoyl chloride maleate]", "values": [{"measurement": "viability at 10 µM", "setting": "[1]", "result": 82.8, "unit": "%"}, {"measurement": "membrane physical state (fluorescence anisotropy of DPH-PA)", "setting": "[2]", "result": "almost complete preservation of the membrane physical state"}, {"measurement": "Level of hsp72 relative to the stress exposed control", "setting": "[3]", "result": "+ + +"}]}
